Laboratory results from ChEMBL document CHEMBL1201862, “PubChem BioAssay data set” (2004).
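The compound was tested at five concentrations on cells cultured in 96-well plates, with a 48-hour exposure period. GI50 is the concentration that inhibits growth by half.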 The source made the active and inactive calls. No stated cut-off is given here; in the data, active = GI50 up to about 1.1 µM and inactive = higher.

How the values were obtained:
Experiment in all cases: NCI tumour cell line growth inhibition, 48 h
786-0 = system: 786-0
A498 = system: A498
A549 = system: A549
CCRF-CEM = system: CCRF-CEM
COLO 205 = system: COLO 205
EKVX = system: EKVX
HCC 2998 = system: HCC 2998
HL-60 = system: HL-60
HOP-62 = system: HOP-62
M14 = system: M14
MCF7 = system: MCF7
MDA-N = system: MDA-N
Malme-3M = system: Malme-3M
OVCAR-8 = system: OVCAR-8
SK-MEL-2 = system: SK-MEL-2
SNB-75 = system: SNB-75
SW-620 = system: SW-620
T47D = system: T47D
TK-10 = system: TK-10
UO-31 = system: UO-31

Measured: GI50

CC(=O)Oc1cc2c(cc1OCC(F)(F)F)[C@H]1CC[C@]3(C)[C@@H](OC(C)=O)CC[C@H]3[C@@H]1CC2=O
inactive: 786-0 26.4 µM | A498 6.18 µM | A549 17.6 µM | CCRF-CEM 15.3 µM | COLO 205 30.8 µM | EKVX 22.8 µM | HCC 2998 16.8 µM | HL-60 13.9 µM | HOP-62 25.1 µM | M14 26.4 µM | MCF7 18.9 µM | MDA-N 24.1 µM | Malme-3M 16.8 µM | OVCAR-8 20.9 µM | SK-MEL-2 16.9 µM | SNB-75 16 µM | SW-620 21.7 µM | T47D 23.3 µM | TK-10 17.5 µM | UO-31 16 µM

Clc1ccc(C(OCn2ccnc2)c2nc3ccccc3[nH]2)c(Cl)c1 (stereo not given)
inactive: 786-0 39 µM | A498 38.2 µM | A549 43.4 µM | CCRF-CEM 38.6 µM | COLO 205 34 µM | EKVX 66.2 µM | HCC 2998 45.5 µM | HL-60 22.1 µM | HOP-62 92.9 µM | M14 54.2 µM | MCF7 38.2 µM | MDA-N 37.5 µM | Malme-3M 88.9 µM | OVCAR-8 52.8 µM | SK-MEL-2 42.7 µM | SNB-75 28.9 µM | SW-620 26.9 µM | T47D 39.1 µM | TK-10 31.7 µM | UO-31 23.7 µM

O=S(=O)(O)/C(=N\c1cccc(Cc2ccccc2)c1)Nc1cccc(Cc2ccccc2)c1
inactive: 786-0 15.2 µM | A498 22.4 µM | A549 22.4 µM | CCRF-CEM 27.2 µM | COLO 205 18.3 µM | EKVX 16.7 µM | HCC 2998 18.8 µM | HL-60 33.4 µM | HOP-62 32.6 µM | M14 16.4 µM | MCF7 19.2 µM | MDA-N 20.4 µM | Malme-3M 17.5 µM | OVCAR-8 18.5 µM | SK-MEL-2 21.6 µM | SNB-75 16.1 µM | SW-620 23.7 µM | T47D 15.8 µM | TK-10 19.8 µM | UO-31 15.8 µM

O=C1c2ccccc2C(=O)c2c(NCC3CO3)cccc21 (stereo not given)
inactive: 786-0 12.2 µM | A498 34.4 µM | A549 57 µM | CCRF-CEM 1.43 µM | COLO 205 > 53.1 µM | EKVX 17.5 µM | HCC 2998 > 100 µM | HL-60 5.27 µM | HOP-62 > 46.1 µM | M14 11.3 µM | MCF7 1.31 µM | MDA-N 8.99 µM | Malme-3M > 80.5 µM | OVCAR-8 7.19 µM | SK-MEL-2 17.2 µM | SNB-75 > 100 µM | SW-620 5.57 µM | T47D > 100 µM | TK-10 40.9 µM | UO-31 8.05 µM
